Where a name gives a salt, the structure may show the parent alone.
Columns and labels:
[1] = target: T1, human, citrated, platelet-rich plasma (Homo sapiens, UniProt P05106+P08514); assay: Test (a): inhibition of ADP stimulated platelet aggregation (Born); type: cell-based; conditions: ADP induced aggregation of human platelet-rich plasma; for Kb: read-out: Test (a): pA2 value indicating potency of platelet aggregation inhibition (converted)
T1 construct: aggregating human, citrated, platelet-rich plasma; endogenous in cells; host or cells: human platelets in citrated platelet-rich plasma
Summary of the method: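 ADP added to human citrated platelet-rich plasma to build aggregation dose-response curves, repeated with increasing test compound (generally 10-^5 M to 10-^10 M). pA2 derived from the 50% response value for ADP with vs. without compound, averaged over several concentrations.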

[2] = target: T2, purified human platelet fibrinogen receptor (GPIIb/IIIa) (Homo sapiens, UniProt P05106+P08514); assay: Test (b): GPIIb/IIIa ELISA, inhibition of biotinylated fibrinogen binding; conditions: purified human platelet GPIIb/IIIa, ELISA; for IC50: read-out: Test (b): pIC50 (-log(IC50)), 50% inhibition of biotinylated fibrinogen binding to GPIIb/IIIa (converted)
T2 construct: is isolated from human platelet lysates; from tissue
Summary of the method: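 GPIIb/IIIa affinity-purified from human platelet lysates was coated on plates, blocked, then incubated 2 h at 30 °C with biotinylated fibrinogen ([…]) plus compound. Bound fibrinogen detected via streptavidin/biotinylated HRP and TMB, OD at 650 nm; pIC50 for 50% binding inhibition.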

T2 sequence (P08514 32-887 limits assumed): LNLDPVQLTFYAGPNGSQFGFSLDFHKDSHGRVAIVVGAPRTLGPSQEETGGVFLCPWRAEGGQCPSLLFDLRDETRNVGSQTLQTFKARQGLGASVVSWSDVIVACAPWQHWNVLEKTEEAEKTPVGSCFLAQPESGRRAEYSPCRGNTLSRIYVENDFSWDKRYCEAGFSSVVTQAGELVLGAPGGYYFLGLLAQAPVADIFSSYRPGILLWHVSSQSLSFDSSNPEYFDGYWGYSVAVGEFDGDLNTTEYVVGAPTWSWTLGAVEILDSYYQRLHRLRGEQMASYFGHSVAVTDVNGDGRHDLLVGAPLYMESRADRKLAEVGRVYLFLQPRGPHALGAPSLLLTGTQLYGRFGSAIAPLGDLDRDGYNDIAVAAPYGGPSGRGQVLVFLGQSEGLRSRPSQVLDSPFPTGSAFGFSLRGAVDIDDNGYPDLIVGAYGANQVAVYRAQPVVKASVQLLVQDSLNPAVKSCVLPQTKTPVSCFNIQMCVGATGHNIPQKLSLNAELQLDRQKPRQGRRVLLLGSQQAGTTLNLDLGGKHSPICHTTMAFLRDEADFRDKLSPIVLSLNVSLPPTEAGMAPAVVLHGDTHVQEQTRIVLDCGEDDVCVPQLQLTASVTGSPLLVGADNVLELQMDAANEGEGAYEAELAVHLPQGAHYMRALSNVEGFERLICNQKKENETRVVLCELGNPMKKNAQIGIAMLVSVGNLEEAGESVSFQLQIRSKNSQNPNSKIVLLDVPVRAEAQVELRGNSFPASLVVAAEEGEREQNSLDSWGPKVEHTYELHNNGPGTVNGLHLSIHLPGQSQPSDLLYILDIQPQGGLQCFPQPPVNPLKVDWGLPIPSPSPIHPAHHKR
T2 sequence (P08514 891-1039 limits assumed): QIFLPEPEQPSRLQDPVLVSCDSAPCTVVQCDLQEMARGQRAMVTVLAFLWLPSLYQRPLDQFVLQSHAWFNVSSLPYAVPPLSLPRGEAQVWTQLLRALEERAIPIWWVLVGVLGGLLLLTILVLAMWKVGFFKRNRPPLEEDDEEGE
T2 sequence (P05106 27-788): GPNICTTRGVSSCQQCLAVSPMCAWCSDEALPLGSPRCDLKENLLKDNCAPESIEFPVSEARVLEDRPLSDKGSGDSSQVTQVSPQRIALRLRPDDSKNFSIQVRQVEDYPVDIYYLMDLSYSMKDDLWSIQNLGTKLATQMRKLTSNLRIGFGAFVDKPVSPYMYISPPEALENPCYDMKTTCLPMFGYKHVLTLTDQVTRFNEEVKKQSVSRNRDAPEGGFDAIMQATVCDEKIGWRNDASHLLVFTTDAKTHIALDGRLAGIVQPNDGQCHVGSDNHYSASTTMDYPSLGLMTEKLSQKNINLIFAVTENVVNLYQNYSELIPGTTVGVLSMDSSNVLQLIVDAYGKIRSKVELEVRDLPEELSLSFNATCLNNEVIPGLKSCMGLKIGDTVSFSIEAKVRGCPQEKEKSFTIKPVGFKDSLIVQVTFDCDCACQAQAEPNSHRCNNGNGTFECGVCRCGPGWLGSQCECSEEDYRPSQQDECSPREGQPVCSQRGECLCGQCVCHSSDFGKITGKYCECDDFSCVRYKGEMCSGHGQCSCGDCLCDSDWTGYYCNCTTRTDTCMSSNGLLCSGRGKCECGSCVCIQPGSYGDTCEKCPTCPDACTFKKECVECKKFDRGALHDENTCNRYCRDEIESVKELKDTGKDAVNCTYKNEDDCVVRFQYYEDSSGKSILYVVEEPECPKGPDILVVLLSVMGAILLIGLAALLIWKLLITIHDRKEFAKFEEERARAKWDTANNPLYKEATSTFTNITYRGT
T1 sequence (P08514 32-887 limits assumed): as the sequence (P08514 32-887 limits assumed) above
T1 sequence (P08514 891-1039 limits assumed): as the sequence (P08514 891-1039 limits assumed) above
T1 sequence (P05106 27-788): as the sequence (P05106 27-788) above

Structure (SMILES) | Kb [1] | IC50 [2] | Test (a): pA2 value indicating potency of platelet aggregation inhibition [1] | Test (b): pIC50 (-log(IC50)), 50% inhibition of biotinylated fibrinogen binding to GPIIb/IIIa [2]
O=C(O)CCc1ccc(OCC2CCN(c3ccncc3)CC2)cc1 [Example 162, 3-[4-[1-(4-Pyridyl)piperidin-4-yl]methoxyphenyl]propionic acid] | 20000 nM | 631 nM |  | 
COC(=O)CCc1ccc(OCC2CCN(c3ccncc3)CC2)cc1 [Example 161, Methyl 3-[4-[1-(4-pyridyl)piperidin-4-yl]methoxyphenyl]propionate] | 12600 nM | 50100 nM |  | 
COC(=O)COc1ccc(C(=O)CN2CCN(c3ccncn3)CC2)cc1 [Example 47, Methyl 4-[2-[4-(4-pyrimidinyl)piperazin-1-yl]acetyl]phenoxyacetate] | 6310 nM | 39800 nM |  | 
O=C(O)COc1ccc(CCN2CCN(c3ccncc3)CC2)cc1 [Example 148, 4-[2-[4-(4-Pyridyl)piperazin-1-yl]ethyl]phenoxyacetate acid dihydrochloride] |  |  | 7.3 | 7.5
Cc1ccc(S(=O)(=O)NCCc2ccc(C(=O)CN3CCN(c4ccncc4)CC3)cc2)cc1 [Example 23, N-[2-[4-[2-[4-(4-Pyridyl)piperazin-1-yl]acetyl]phenyl]ethyl]-4-methylphenylsulphonamide] | 1000 nM | 6310 to 31600 nM |  | 
CCCCS(=O)(=O)NC(Cc1ccc(C(=O)CN2CCN(c3ccncc3)CC2)cc1)C(=O)OC (racemic) [Example 66, Methyl 2-RS-(n-butylsulphonylamino)-3-[4-[2-[4-(4-pyridyl)piperazin-1-yl]acetyl]phenyl]propionate] | 2000 nM | 251 nM |  | 
O=C(O)CCCOc1cccc(N2CCN(c3ccncc3)CC2)c1 [Example 227, 3-[4-(4-Pyridyl)piperazin-1-yl]phenoxybutyric acid] | 2510 nM | 100 nM |  | 
CCCCS(=O)(=O)N[C@@H](Cc1ccc(OCCCCC2CCN(c3ccncc3)CC2)cc1)C(=O)OC [Example 83, Methyl 2-S-(butylsulphonylamino)-3-[4-[4-[1-(4-pyridyl)piperidin-4-yl]-butoxy]phenyl]propionate] | 39800 nM | 2000 nM |  | 
Cc1cc(N2CCN(CC(=O)c3ccc(OCC(=O)O)cc3)CC2)ccn1 [Example 152, 4-[2-[4-(2-Methylpyrid-4-yl)piperazin-1-yl]acetyl]phenoxyacetic acid, dihydrobromide] | 100 nM | 100 nM |  | 
COC(=O)COc1ccc(C(=O)CN2CCN(c3ccncc3)CC2)cc1OC [Example 5, Methyl 4-[2-[4-(4-pyridyl)piperazin-1-yl]acetyl]-2-methoxyphenoxyacetate] | 1000 nM | 1000 nM |  | 
O=C(O)COc1c(Cl)cc(C(=O)CN2CCN(c3ccncc3)CC2)cc1Cl [Example 123, 4-[2-[4-(4-Pyridyl)piperazin-1-yl]acetyl]-2,6-dichlorophenoxyacetic acid, dihydrochloride] | 1000 nM | 100 nM |  | 
COC(=O)COc1ccc(C(=O)CN2CCN(c3ccncc3)CC2=O)cc1 [Example 61, Methyl 4-[2-[4-(4-pyridyl)piperazin-2-one-1-yl]acetyl]phenoxyacetate] | 31.6 nM | 200 nM |  | 
COC(=O)c1cc2cc(C(=O)CN3CCN(c4ccncc4)CC3)ccc2o1 [Example 25, Methyl 5-[2-[4-(4-pyridyl)piperazin-1-yl]acetyl]benzofuran-2-carboxylate] | 7940 nM | 15800 nM |  | 
CC(C)(Oc1ccc(C(=O)CN2CCN(c3ccncc3)CC2)cc1)C(=O)O [Example 135, 2-[4-[2-[4-(4-Pyridyl)piperazin-1-yl]acetyl]phenoxy]isobutyric acid, dihydrobromide] | 31600 nM | > 100000 nM |  | 
CCCCS(=O)(=O)NCCc1ccc(C(=O)CN2CCN(c3ccncc3)CC2)cc1 [Example 24, N-[2-[4-[2-[4-(4-Pyridyl)piperazin-1-yl]acetyl]phenyl]ethyl]-1-butanesulphonamide] | 2000 nM | 31600 nM |  | 
CNC(=O)COc1ccc(C(=O)CN2CCN(c3ccncc3)CC2)cc1 [Example 143, 2-[4-[2-[4-(4-Pyridyl)piperazin-1-yl]acetyl]phenoxy]-N-methylacetamide] | 10000 nM | 31600 nM |  | 
O=C(O)COc1ccc2c(CN3CCN(c4ccncc4)CC3)cccc2c1 [Example 76, 5-[[4-(4-Pyridyl)piperazin-1-yl]methylene]naphth-2-yloxyacetic acid] | 31600 nM | 1260 nM |  | 
CC(C)(C)COC(=O)COc1ccc(C(=O)CN2CCN(c3ccncc3)CC2)cc1 [Example 139, Neopentyl 4-[2-[4-(4-pyridyl)piperazin-1-yl]acetyl]phenoxyacetate] | 251 nM | 3980 nM |  | 
O=C(CN1CCN(c2ccncc2)CC1)c1ccc(OCc2nnn[nH]2)cc1 [Example 141, 5-[4-[2-[4-(4-Pyridyl)piperazin-1-yl]acetyl]phenoxymethyl]tetrazole] | 31600 nM | 31600 nM |  | 

Structure (SMILES) | Kb [1] | IC50 [2] | Test (a): pA2 value indicating potency of platelet aggregation inhibition [1] | Test (b): pIC50 (-log(IC50)), 50% inhibition of biotinylated fibrinogen binding to GPIIb/IIIa [2]
CCCCS(=O)(=O)N[C@@H](Cc1ccc(OCCCN(C)c2ccncc2)cc1)C(=O)OC [Example 95, Methyl-2-S-(n-butylsulphonylamino)-3-[3-(N-methyl-N-4-pyridyl)aminopropoxy]phenylpropionate] | 10000 nM | 7940 nM |  | 
CCCCS(=O)(=O)N[C@@H](Cc1ccc(OCC2CCN(c3ccncc3)CC2)cc1)C(=O)OC [Example 33, Methyl 2-S-(n-butylsulphonylamino)-3-[4-[1-(4-pyridyl)piperidin-4-yl]methoxyphenyl]propionate] | 398 nM | 126 nM |  | 
O=C(COc1ccc(C(=O)CN2CCN(c3ccncc3)CC2)cc1)NCc1ccccc1 [Example 145, 2-[4-[2-[4-(4-Pyridyl)piperazin-1-yl]acetyl]phenoxy]-N-(phenylmethyl)-acetamide] | 3160 nM | 5010 nM |  | 
CC(C)OC(=O)COc1ccc(C(=O)CN2CCN(c3ccncc3)CC2)cc1 [Example 137, iso-Propyl 4-[2-[4-(4-pyridyl)piperazin-1-yl]acetyl]phenoxyacetate] | 63.1 nM | 3160 nM |  | 
CCCCS(=O)(=O)N[C@@H](Cc1ccc(OCC2CCN(c3ccncc3)CC2)cc1)C(=O)O [Example 34, 2-S-(n-Butylsulphonylamino)-3-[4-[1-(4-pyridyl)piperidin-4-yl]methoxyphenyl]propionic acid] | 2 nM | 2 nM |  | 
O=C(O)COc1ccc(C(=O)NC2CCN(c3ccncc3)CC2)cc1 [Example 167, 4-[[1-(4-Pyridyl)piperidin-4-yl]aminocarbonyl]phenoxyacetic acid dihydrochloride] | 251 nM | 200 nM |  | 
O=C(O)COc1ccc(OCC2CCN(c3ccncc3)CC2)cc1 [Example 158, 4-[1-(4-Pyridyl)piperidin-4-yl]methoxyphenoxyacetic acid.] | 631 nM | 100 nM |  | 
O=C(O)c1ccc(Oc2ccc(N3CCN(c4ccncc4)CC3)cc2)nc1 [Example 233, 6-[4-[4-(4-Pyridyl)piperazin-1yl]phenoxy]pyridine-3-carboxylic acid] | 6310 nM | 501 nM |  | 
CCCCS(=O)(=O)N[C@@H](Cc1ccc(OCCCN(C)c2ccncc2)cc1)C(=O)O [Example 96] | 79.4 nM | 3.98 nM |  | 
O=C(O)CC(NC(=O)c1ccc(N2CCN(c3ccncc3)CC2)cc1)c1ccccc1 (centres unmarked) [Example 59, 3-[4-[4-(4-Pyridy)piperazin-1-yl]benzamido]-3-phenylpropionic acid] | 63.1 nM | 31.6 nM |  | 
CC(C)(C)OC(=O)COc1ccc(CC(=O)N2CCN(c3ccncc3)CC2)cc1 [Example 149, Tertiary butyl 4-[2-[4-(4-pyridyl)piperazin-1-yl]carbonylmethyl]-phenoxyacetate] | 20000 nM | 20000 nM |  | 
COC(=O)[C@H](Cc1ccc(OCCC2CCN(c3ccncc3)CC2)cc1)NS(C)(=O)=O [Example 85, Methyl 2-S-(methsulphonylamino)-3-[4-[2-[1-(4-pyridyl)piperidin-4-yl]ethoxy]phenyl]propionate] | 1580 nM | 251 nM |  | 
CCOC(=O)COc1ccc(C(=O)CN2CCN(c3ccncc3)CC2)cc1 [Example 136, Ethyl-4-[2-[4-(4-pyridyl)piperazin-1-yl]acetyl]phenoxyacetate] | 126 nM | 2510 nM |  | 
CCCCC(=O)N[C@@H](Cc1ccc(OCCC2CCN(c3ccncc3)CC2)cc1)C(=O)O [Example 93, 2-S-(Pentanoylamino)-3-[4-[2-[1-(4-pyridyl)piperidin-4-yl]ethoxy]phenyl]propionic acid] | 12.6 nM | 3.16 nM |  | 
O=C(O)CCNC(=O)CCCN1CCN(c2ccncc2)CC1 [Example 195, 3-[4-[4-(4-Pyridyl)piperazin-1-yl]butyryl]aminopropionic acid, trifluoroacetate] | 2510 nM | 158 nM |  | 
C=CC(COc1ccc(N2CCN(c3ccncc3)CC2)cc1)CC(=O)O (racemic) [Example 204, RS-4-[4-[4-(4-Pyridyl)piperazin-1-yl]phenoxy]-3-vinylbutyric acid, sodium salt] | 79.4 nM | 1.26 nM |  | 
COC(=O)COc1c(Cl)cc(C(=O)CN2CCN(c3ccncc3)CC2)cc1Cl [Example 116] | 2000 nM | 2510 nM |  | 
O=C(O)CC(NC(=O)c1cccc(CN2CCN(c3ccncc3)CC2)c1)c1ccccc1 (centres unmarked) [Example 55, 3-[3-[4-(4-Pyridyl)piperazin-1-ylmethyl]]benzamido-3-phenylpropionic acid] | 31600 nM | 15800 nM |  | 

From patent US5750754A, “Heterocyclic compounds” (Zeneca Limited, priority 1993, dated 1998)
